Data published in article PMC5519068 (PLoS ONE, 2017).
“Also recorded” adds a separate entry of the source.

Columns and labels:
[1] = system: Flt3 and Fes in primary AML patient samples; set-up: method as in PMID 20111072; conditions: cited from earlier work
[2] = system: Fes in TF-1/Flt3-ITD cells; assay: Immunoprecipitation/immunoblot of Fes pY713 in TF-1/Flt3-ITD cells; format: cell-based, human; conditions: compound at in vitro IC90 for Fes, 16 h (tandutinib: IC90 for Flt3-ITD, 6 h)
Description: (§1) AML cells (2.5 x 10^6 in 5 mL) were cultured in the presence of kinase inhibitors or DMSO alone for 6 to 16 hours prior to lysis by sonication in RIPA buffer (50 mM Tris-HCl, pH 7.4, 150 mM NaCl, 1 mM EDTA, 1% Triton X-100, 0.1% SDS, 1% sodium deoxycholate) supplemented with 1 mM sodium orthovanadate, 1 mM sodium fluoride, 5 units/ml Benzonase (Novagen), and SigmaFAST EDTA-free protease inhibitor cocktail (Sigma). Flt3 and Fes were immunoprecipitated from 1 mg of cell lysate with 2 μg of antibody and 25 μL of protein G-Sepharose beads (Life Technologies) overnight at 4°C. Immunoprecipitates were washed three times by resuspension in 1.0 ml of RIPA buffer. Immunoprecipitated proteins were separated by SDS-PAGE, transferred to PVDF membranes and probed with the indicated antibodies followed by alkaline phosphatase-linked secondary antibodies. CDP-Star Western Blot Chemiluminescence Reagent (Perkin-Elmer) was used for detection.
(§2) Raw fluorescence data were corrected for background and then normalized to cultures grown in the presence of the DMSO carrier solvent. Each condition was performed in triplicate, and results are presented as the mean of the normalized values ± the SD. The resulting dose-response curves were fitted by non-linear regression analysis for estimation of the IC50 values (see Table 2). […] Fes and Flt3 kinase proteins were then immunoprecipitated from cell lysates followed by immunoblotting with antibodies to phosphotyrosine (pTyr), the Fes activation loop phosphotyrosine (pY713), as well as the Flt3 and Fes proteins.

Flt3-ITD in Ba/F3 cells = conditions: 100 nM; cited from earlier work
[3] = system: T1, Fes in MV4-11 and MOLM-14 cells; assay: Immunoprecipitation/immunoblot of Fes activation loop phosphorylation (pY713) in AML cells; format: cell-based, human; conditions: compound at in vitro IC90 for Fes, 16 h (tandutinib: IC90 for Flt3-ITD, 6 h)
T1 construct: endogenous in cells; host or cells: MV4-11 and MOLM-14
Description: as §1
(§3) Fes and Flt3 kinase proteins were then immunoprecipitated from cell lysates, followed by immunoblotting with antibodies to phosphotyrosine (pTyr), the Fes activation loop phosphotyrosine (pY713), as well as the Flt3 and Fes proteins.

[4] = system: Flt3-ITD+ AML cell lines (MV4-11, MOLM-13, MOLM-14); assay: Growth inhibition across Flt3-ITD+ AML cell lines; format: cell-based; conditions: Homo sapiens, 72 h, read-out: IC50 values for growth inhibition, range over the Flt3-ITD+ AML cell lines
Description: (§4) Cells were seeded at a density of 100,000 cells per 1.0 ml in 48-well culture plates. Compounds were added to various concentrations while holding the DMSO concentration constant at 0.1%. Cell viability was assessed 72 hours later using the CellTiter-Blue Cell Viability assay (Promega) according to the manufacturer’s protocol and a SpectraMax Multi-Mode Microplate Reader (Molecular Devices). IC50 values were determined by non-linear regression analysis of concentration-response curves using the GraphPad PRISM software package (version 6.0). Apoptosis was determined using the same cell culture conditions and the Apo-ONE Homogeneous Caspase-3/7 Assay (Promega) and the manufacturer’s protocol.
Raw fluorescence data were corrected for background and then normalized to cultures grown in the presence of the DMSO carrier solvent. Each assay condition was performed in triplicate, and results are presented as the mean of the normalized values ± the SD.

[5] = system: TF-1 cells expressing Flt3-WT; assay: Inhibitor sensitivity of TF-1 cell populations, CellTiter-Blue, 72 h; format: cell-based; conditions: Homo sapiens, TF-1, 72 h, read-out: Inhibitor sensitivity of TF-1 Cell Populations (IC50, nM) Flt3-WT
Description: as §4
(§5) For each retroviral transduction, TF-1 cells (1 x 10^6) were suspended in 5 mL of undiluted viral supernatant and plated in one well of a 6-well tissue culture dish. Polybrene (Sigma) was added to a final concentration of 4 μg/mL and the TF-1 cells were centrifuged at 1000 x g for 3 hours to enhance retroviral mediated gene transfer. After centrifugation, the virus was removed and replaced with fresh medium.
as §2

MOLM-13 cells = assay: Growth inhibition, CellTiter-Blue viability, 72 h; format: cell-based; conditions: Homo sapiens, MOLM-13 (Flt3-ITD+), read-out: Growth Suppression in AML Cell Lines (IC50, nM) MOLM-13
Description: as §4
(§6) Fig 2 Fes tyrosine kinase inhibitors induce growth arrest in Flt3-ITD^+ AML cell lines. A) The Flt3-ITD^+ cell lines MV4-11, MOLM-13, and MOLM-14, along with THP-1 (wild-type FLT3) were incubated with each of the kinase inhibitors shown over a range of concentrations, and cell viability was measured 72 h later using the CellTiter-Blue Assay (see Materials and methods). Raw fluorescence data were corrected for background and then normalized to cultures grown in the presence of the DMSO carrier solvent. Each assay condition was performed in triplicate, and results are presented as the mean of the normalized values ± the SD. The resulting dose-response curves were fitted by non-linear regression analysis, and the resulting IC50 values are shown in Table 1.

MV4-11 cells = assay: Growth inhibition, CellTiter-Blue viability, 72 h; format: cell-based; conditions: Homo sapiens, MV4-11 (Flt3-ITD+), read-out: Growth Suppression in AML Cell Lines (IC50, nM) MV4-11
Description: as §4, §6

MOLM-14 cells = assay: Growth inhibition, CellTiter-Blue viability, 72 h; format: cell-based; conditions: Homo sapiens, MOLM-14 (Flt3-ITD+), read-out: Growth Suppression in AML Cell Lines (IC50, nM) MOLM-14
Description: as §4, §6

THP-1 cells [6] = assay: Growth inhibition, CellTiter-Blue viability, 72 h; format: cell-based; conditions: Homo sapiens, THP-1 (wild-type Flt3), read-out: Growth Suppression in AML Cell Lines (IC50, nM) THP-1
Description: as §4, §6

[7] = system: Flt3-ITD-transformed Ba/F3 cells; conditions: cited from earlier work
[8] = system: Flt3-ITD+ AML cell lines (MV4-11, MOLM-13, MOLM-14); assay: Apoptosis, Apo-ONE Caspase 3/7 assay; format: cell-based, human; conditions: 1.0 μM, 72 h
Description: as §4
Cell viability was measured in parallel using the CellTiter-Blue assay, and the resulting data are presented as the ratio of Caspase activity to cell viability as per the manufacturer’s protocol. All assays were performed in triplicate, and data are presented as the mean ratios ± SD. Asterisks indicate statistical significance between each treatment group vs. the corresponding DMSO control group with p < 0.05 (Student’s t-test).

[9] = system: Flt3-ITD in MV4-11 and MOLM-14 cells; assay: Immunoprecipitation/immunoblot of Flt3 phosphotyrosine content in AML cells; format: cell-based, human; conditions: compound at in vitro IC90 for Fes, 16 h (tandutinib: IC90 for Flt3-ITD, 6 h)
Description: as §1, §3

[10] = system: Flt3-ITD in TF-1/Flt3-ITD cells; assay: Immunoprecipitation/immunoblot of Flt3 phosphotyrosine content in TF-1/Flt3-ITD cells; format: cell-based, human; conditions: compound at in vitro IC90 for Fes, 16 h (tandutinib: IC90 for Flt3-ITD, 6 h)
Description: as §1, §2

[11] = system: TF-1 cells transduced with an empty retroviral vector (Control); assay: Inhibitor sensitivity of TF-1 cell populations, CellTiter-Blue, 72 h; format: cell-based, human
Description: as §4, §5, §2

TF-1/Flt3-ITD cells = assay: as above; format: cell-based, human; conditions: Homo sapiens, TF-1, 72 h, read-out: Inhibitor sensitivity of TF-1 Cell Populations (IC50, nM) Flt3-ITD
Description: as §4, §5, §2

TF-1/Flt3-D835Y cells = assay: as above; format: cell-based, human; conditions: Homo sapiens, TF-1, 72 h, read-out: Inhibitor sensitivity of TF-1 Cell Populations (IC50, nM) Flt3-D835Y
Description: as §4, §5, §2

[12] = system: Flt3-D835Y in TF-1/Flt3-D835Y cells; assay: Immunoprecipitation/immunoblot of Flt3-D835Y phosphotyrosine content in TF-1/Flt3-D835Y cells; format: cell-based, human; conditions: immunoblot, compound at in vitro IC90
Description: as §1, §2

[13] = biological target: T2, recombinant full-length Fes (Homo sapiens, UniProt P07332); assay: In vitro kinase assay (Z'-LYTE); format: biochemical; conditions: highest concentration tested 100 μM
T2 construct: in vitro kinase assays using recombinant purified full-length Fes; made in house; host or cells: E. coli
T2 sequence (P07332 whole entry): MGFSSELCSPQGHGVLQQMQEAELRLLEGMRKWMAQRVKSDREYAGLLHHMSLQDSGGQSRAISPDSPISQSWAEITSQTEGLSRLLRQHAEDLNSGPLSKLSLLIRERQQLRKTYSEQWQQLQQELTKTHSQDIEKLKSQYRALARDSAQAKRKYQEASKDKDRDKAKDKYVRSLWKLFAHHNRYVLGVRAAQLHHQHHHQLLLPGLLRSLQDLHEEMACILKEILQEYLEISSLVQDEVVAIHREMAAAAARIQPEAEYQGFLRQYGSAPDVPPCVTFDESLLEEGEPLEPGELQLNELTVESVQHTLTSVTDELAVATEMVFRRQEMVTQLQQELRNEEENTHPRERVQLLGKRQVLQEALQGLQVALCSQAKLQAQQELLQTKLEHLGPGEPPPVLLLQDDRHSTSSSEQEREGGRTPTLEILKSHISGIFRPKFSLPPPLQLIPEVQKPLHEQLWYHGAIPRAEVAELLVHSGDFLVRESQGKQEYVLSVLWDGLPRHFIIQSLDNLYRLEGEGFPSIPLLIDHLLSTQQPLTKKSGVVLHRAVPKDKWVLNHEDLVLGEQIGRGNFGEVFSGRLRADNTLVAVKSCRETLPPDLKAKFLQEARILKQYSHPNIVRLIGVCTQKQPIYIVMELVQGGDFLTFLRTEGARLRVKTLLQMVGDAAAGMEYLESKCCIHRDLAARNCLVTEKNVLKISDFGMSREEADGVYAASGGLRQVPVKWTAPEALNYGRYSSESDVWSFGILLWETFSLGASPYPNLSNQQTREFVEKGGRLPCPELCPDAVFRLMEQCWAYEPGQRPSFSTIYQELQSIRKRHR
Description: Recombinant protein kinase assays were performed using the FRET-based Z’-LYTE Kinase Assay according to the manufacturer’s instructions (Thermo Fisher Scientific). […] The Tyr-2 peptide was used as substrate for all recombinant kinases. Kinases were preincubated with inhibitors for 30 minutes, followed by addition of ATP and peptide substrate for 1 hour. Reactions were quenched by addition of development reagent, followed by incubation for an additional hour prior to fluorescence measurements on a SpectraMax M5 microplate reader. IC50 values were calculated by non-linear regression analysis of the resulting concentration-response curves using GraphPad PRISM.

Stat5 activation = system: Stat5 activation; set-up: method as in PMID 22411868; conditions: MV4-11 cells and AML patient samples; cited from earlier work
THP-1 cells [14] = assay: Apoptosis, Apo-ONE Caspase 3/7 assay; format: cell-based, human; conditions: 1.0 μM, 72 h
Description: as §4
Fig 3 Fes tyrosine kinase inhibitors induce apoptosis in Flt3-ITD^+ AML cell lines. The Flt3-ITD^+ cell lines MV4-11, MOLM-13, and MOLM-14, along with THP-1 (wild-type FLT3), were incubated with each of kinase inhibitors shown at a final concentration of 1 μM and apoptosis was measured 72 h later using the Apo-ONE Caspase 3/7 Assay (Promega). Cell viability was measured in parallel using the CellTiter-Blue assay, and the resulting data are presented as the ratio of Caspase activity to cell viability as per the manufacturer’s protocol. All assays were performed in triplicate, and data are presented as the mean ratios ± SD. […]

Cc1cc(C)c(/C=C2\C(=O)Nc3ccccc32)[nH]1 [SU5416]
Effect on Flt3 and Fes activation in primary AML patient samples [1]: reduced both Flt3 and Fes activation

COc1cc(N2CCC(N3CCN(C)CC3)CC2)ccc1Nc1ncc(Cl)c(Nc2ccccc2S(=O)(=O)C(C)C)n1 [TAE-684, reference compound]
Inhibition of Fes activation loop phosphorylation in TF-1/Flt3-ITD cells [2]: inhibited Fes | Effect on Flt3-ITD phosphotyrosine content in Ba/F3 cells expressing Flt3-ITD (Flt3-ITD in Ba/F3 cells): no effect | Inhibition of Fes activation loop phosphorylation in MV4-11 and MOLM-14 cells [3]: did inhibit Fes | IC50 [4]: 19 to 166 nM | IC50 [5]: > 1000 nM | IC50 (MOLM-13 cells): 166 nM | IC50 (MV4-11 cells): 123 nM | IC50 (MOLM-14 cells): 74 nM | IC50 (THP-1 cells [6]): > 3000 nM | Effect on Flt3-ITD-transformed Ba/F3 cell proliferation [7]: no effect | Apoptosis (Caspase 3/7 activity) in Flt3-ITD+ AML cell lines [8]: equal to or greater than that observed with tandutinib | Inhibition of Flt3-ITD phosphotyrosine content in MV4-11 and MOLM-14 cells [9]: no effect | Inhibition of Flt3-ITD phosphotyrosine content in TF-1/Flt3-ITD cells [10]: no effect on Flt3-ITD; also recorded: did not affect Flt3-ITD phosphotyrosine content | IC50 ([11]; Homo sapiens, TF-1, empty vector control, 72 h): > 1000 nM | Nonspecific cytotoxicity in TF-1 cells expressing wild-type Flt3 or vector control cells ([11]; TF-1/Flt3-WT and vector control cells): some nonspecific cytotoxicity in the low micromolar range | IC50 (TF-1/Flt3-ITD cells): 82 nM | IC50 (TF-1/Flt3-D835Y cells): 83 nM | Inhibition of Flt3-D835Y phosphotyrosine content in TF-1/Flt3-D835Y cells [12]: complete inhibition; also recorded: completely suppressed

COc1cc2c(N3CCN(C(=O)Nc4ccc(OC(C)C)cc4)CC3)ncnc2cc1OCCCN1CCCCC1 [Tandutinib, reference compound]
Inhibition of Fes activation loop phosphorylation in MV4-11 and MOLM-14 cells [3]: little effect | IC50 (MOLM-13 cells): 532 nM | IC50 (MV4-11 cells): 502 nM | IC50 (MOLM-14 cells): 232 nM | IC50 (THP-1 cells [6]): > 3000 nM | Effect on Fes kinase activity in vitro (words) [13]: does not inhibit Fes in vitro or in cells | Effect on Fes kinase activity in vitro (words) ([13]; listed as tandutinib): no effect

Cc1nc(Nc2ncc(C(=O)Nc3c(C)cccc3Cl)s2)cc(N2CCN(CCO)CC2)n1 [dasatinib]
Effect on Stat5 activation (Stat5 activation): reduced Stat5 activation

CN[C@@H]1C[C@H]2O[C@@](C)([C@@H]1OC)n1c3ccccc3c3c4c(c5c6ccccc6n2c5c31)C(=O)NC4 [staurosporine, reference compound]
Apoptosis (Caspase 3/7 activity) in Flt3-ITD+ AML cell lines [8]: strong apoptotic response | Apoptosis (Caspase 3/7 activity) in THP-1 cells (THP-1 cells [14]): strong apoptotic response
